Paper PMC11897524 (Frontiers in Pharmacology, 2025)

Assays:
Type in all cases: binding
[1] = molecular target: BRD3 (Homo sapiens, UniProt Q15059); assay: Inhibitory effect on BET and STAT family members
From the text: (§1) TABLE 4 The inhibitory effect of BST-4 on other members of the BET and STAT families. | column: IC50 (μM)

[2] = molecular target: STAT5a (Homo sapiens, UniProt P42229); assay: Inhibitory effect on BET and STAT family members
From the text: as §1

[3] = molecular target: STAT1 (Homo sapiens, UniProt P42224); assay: Inhibitory effect on BET and STAT family members
Sequence of STAT1 (P42224 whole entry): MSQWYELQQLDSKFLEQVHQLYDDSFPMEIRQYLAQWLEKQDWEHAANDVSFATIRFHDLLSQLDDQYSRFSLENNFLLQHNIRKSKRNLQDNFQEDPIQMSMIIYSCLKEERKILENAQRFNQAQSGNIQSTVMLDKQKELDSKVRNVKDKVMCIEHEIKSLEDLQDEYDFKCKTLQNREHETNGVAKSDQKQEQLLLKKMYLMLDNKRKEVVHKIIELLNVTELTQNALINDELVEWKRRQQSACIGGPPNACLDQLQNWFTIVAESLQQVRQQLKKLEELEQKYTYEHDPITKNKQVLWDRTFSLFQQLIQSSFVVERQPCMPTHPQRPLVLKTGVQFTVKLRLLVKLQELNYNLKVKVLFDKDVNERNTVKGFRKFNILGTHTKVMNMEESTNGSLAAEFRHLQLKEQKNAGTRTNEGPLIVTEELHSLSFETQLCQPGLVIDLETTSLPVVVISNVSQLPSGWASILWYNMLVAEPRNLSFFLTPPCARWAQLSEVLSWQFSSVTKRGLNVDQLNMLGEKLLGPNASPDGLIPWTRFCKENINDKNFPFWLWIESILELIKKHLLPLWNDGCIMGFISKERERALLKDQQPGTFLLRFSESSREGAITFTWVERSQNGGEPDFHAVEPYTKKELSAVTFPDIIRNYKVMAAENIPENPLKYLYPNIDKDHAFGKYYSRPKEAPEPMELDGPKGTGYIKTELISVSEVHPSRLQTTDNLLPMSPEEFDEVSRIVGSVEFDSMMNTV
From the text: as §1

[4] = molecular target: STAT5b (Homo sapiens, UniProt P51692); assay: Inhibitory effect on BET and STAT family members
Sequence of STAT5b (P51692 whole entry): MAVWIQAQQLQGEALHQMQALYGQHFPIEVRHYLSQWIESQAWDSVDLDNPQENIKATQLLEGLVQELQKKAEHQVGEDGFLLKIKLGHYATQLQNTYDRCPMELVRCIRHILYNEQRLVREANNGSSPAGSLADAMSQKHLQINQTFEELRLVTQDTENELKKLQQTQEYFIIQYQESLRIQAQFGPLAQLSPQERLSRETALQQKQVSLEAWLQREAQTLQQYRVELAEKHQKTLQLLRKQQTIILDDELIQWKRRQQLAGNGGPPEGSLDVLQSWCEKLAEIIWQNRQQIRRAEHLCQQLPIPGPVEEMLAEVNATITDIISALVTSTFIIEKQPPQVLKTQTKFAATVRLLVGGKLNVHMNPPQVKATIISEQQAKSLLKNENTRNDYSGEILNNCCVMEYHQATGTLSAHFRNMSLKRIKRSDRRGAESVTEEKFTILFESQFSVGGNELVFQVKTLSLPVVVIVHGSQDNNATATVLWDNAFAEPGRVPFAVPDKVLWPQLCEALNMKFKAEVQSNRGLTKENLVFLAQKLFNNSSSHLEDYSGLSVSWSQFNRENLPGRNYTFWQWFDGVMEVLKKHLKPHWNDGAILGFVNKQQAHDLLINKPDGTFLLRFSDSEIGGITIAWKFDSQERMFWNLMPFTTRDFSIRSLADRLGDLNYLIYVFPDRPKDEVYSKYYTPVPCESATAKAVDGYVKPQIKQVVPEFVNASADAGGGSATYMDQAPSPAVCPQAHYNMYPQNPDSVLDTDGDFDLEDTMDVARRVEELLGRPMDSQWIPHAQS
From the text: as §1

[5] = molecular target: STAT2 (Homo sapiens, UniProt P52630); assay: Inhibitory effect on BET and STAT family members
Sequence of STAT2 (P52630 whole entry): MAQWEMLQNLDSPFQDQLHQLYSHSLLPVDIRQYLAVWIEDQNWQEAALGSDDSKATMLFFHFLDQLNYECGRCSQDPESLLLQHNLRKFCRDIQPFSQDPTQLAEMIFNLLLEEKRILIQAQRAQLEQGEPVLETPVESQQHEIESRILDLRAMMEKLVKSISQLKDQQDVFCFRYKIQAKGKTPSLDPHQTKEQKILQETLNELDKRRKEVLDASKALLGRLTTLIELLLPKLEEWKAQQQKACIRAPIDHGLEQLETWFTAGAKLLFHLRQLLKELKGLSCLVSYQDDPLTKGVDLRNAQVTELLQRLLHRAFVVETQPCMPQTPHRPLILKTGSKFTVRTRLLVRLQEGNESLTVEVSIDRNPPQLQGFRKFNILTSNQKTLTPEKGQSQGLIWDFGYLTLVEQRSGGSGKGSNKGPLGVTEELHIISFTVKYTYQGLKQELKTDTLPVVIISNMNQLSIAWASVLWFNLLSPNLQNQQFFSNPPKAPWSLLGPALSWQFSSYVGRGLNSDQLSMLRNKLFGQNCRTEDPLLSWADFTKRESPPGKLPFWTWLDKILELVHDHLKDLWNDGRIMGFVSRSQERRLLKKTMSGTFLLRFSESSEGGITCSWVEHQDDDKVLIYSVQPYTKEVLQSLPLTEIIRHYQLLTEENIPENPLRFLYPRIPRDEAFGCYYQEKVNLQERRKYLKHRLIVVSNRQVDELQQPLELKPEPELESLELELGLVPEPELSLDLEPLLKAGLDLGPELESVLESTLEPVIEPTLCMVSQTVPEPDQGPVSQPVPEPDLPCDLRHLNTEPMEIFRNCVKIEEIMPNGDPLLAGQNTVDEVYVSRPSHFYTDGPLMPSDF
From the text: as §1

[6] = molecular target: STAT3 (Homo sapiens, UniProt P40763); assay: Microscale thermophoresis (MST) assay; design: purchased Abcam
Sequence of STAT3 (P40763 whole entry): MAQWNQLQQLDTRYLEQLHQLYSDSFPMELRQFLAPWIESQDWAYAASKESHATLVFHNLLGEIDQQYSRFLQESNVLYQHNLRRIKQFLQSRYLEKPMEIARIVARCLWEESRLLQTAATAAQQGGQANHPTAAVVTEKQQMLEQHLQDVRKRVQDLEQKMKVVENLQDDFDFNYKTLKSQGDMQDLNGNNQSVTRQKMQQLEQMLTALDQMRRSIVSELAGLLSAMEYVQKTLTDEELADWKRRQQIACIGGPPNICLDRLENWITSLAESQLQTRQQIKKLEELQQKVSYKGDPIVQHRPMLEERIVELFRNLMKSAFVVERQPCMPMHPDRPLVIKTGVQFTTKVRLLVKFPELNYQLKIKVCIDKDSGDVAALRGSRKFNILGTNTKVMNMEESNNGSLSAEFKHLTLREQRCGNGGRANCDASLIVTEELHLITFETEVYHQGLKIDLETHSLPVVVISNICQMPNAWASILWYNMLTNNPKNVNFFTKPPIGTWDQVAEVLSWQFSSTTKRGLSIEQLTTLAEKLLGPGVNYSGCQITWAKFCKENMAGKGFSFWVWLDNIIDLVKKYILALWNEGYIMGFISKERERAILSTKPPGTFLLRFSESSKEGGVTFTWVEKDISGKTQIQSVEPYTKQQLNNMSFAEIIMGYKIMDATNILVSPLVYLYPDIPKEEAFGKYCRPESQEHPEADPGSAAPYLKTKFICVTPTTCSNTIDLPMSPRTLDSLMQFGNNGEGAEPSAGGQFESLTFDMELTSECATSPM
Method: The MST experiments were performed using the Monolith NT.115 instrument. BRD4 and STAT3 proteins were labeled with the Lys labeling kit at the final concentration of 100 nM. The compounds, previously suspended in 100% DMSO, were diluted in a buffer containing 20 mM Tris·HCl (pH 7.5), 100 mM NaCl, and 3 mM DTT, achieving a final DMSO concentration of 5%. The compounds were gradient-diluted in 1:1 dilution and starting from 100 μM. The samples were loaded into MST-standard glass capillaries. All the measurements were performed in triplicate using automatically assigned 50% MST power and 20% LED power. Data analysis was performed using GraphPad Prism 7.0 software.

Sequence of BRD3 (Q15059 whole entry): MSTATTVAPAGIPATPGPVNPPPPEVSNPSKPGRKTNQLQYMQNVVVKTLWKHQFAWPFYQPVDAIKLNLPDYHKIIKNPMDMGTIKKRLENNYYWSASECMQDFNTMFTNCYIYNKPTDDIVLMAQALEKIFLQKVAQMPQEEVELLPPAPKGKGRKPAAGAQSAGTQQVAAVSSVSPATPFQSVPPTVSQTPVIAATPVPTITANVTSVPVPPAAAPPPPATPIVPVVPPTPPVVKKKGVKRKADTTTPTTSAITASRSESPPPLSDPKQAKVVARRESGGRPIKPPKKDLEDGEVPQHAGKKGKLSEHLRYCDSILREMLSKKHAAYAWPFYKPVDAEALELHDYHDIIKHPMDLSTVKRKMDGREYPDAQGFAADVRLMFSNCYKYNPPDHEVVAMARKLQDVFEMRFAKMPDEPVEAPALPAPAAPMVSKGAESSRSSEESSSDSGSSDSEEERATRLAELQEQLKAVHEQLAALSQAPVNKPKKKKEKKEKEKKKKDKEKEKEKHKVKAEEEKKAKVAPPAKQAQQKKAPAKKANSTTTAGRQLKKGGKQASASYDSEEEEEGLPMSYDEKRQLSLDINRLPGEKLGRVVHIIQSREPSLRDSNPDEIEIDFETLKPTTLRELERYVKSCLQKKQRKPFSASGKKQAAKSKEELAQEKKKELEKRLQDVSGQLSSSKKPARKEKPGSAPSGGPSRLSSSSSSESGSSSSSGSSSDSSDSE
Sequence of STAT5a (P42229 whole entry): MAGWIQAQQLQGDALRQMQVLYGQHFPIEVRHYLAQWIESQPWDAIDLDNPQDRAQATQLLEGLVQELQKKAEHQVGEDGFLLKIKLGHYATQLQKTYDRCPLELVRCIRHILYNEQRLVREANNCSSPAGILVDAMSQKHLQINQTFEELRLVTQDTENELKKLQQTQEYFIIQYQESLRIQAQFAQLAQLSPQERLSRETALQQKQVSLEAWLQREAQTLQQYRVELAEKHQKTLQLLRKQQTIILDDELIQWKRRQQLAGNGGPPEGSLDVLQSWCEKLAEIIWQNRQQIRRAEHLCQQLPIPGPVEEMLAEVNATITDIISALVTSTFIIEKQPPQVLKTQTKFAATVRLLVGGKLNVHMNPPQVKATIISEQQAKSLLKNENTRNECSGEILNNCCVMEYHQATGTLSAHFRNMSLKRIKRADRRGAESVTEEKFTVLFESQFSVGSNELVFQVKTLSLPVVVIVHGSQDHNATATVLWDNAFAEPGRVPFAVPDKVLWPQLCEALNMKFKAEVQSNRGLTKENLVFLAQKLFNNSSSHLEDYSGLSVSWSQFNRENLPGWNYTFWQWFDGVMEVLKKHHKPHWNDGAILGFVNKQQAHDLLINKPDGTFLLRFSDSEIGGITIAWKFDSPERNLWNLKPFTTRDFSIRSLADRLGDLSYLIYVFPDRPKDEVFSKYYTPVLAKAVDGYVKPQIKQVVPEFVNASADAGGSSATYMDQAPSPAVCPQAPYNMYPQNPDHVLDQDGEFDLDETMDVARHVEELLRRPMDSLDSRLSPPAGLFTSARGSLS

IC50 [1]: > 10 µM | IC50 [2]: > 10 µM | IC50 [3]: > 10 µM | IC50 [4]: > 10 µM | IC50 [5]: > 10 µM | STAT3 binding affinity relative to CJ-1383 ([6]; Kd ratio vs CJ-1383, MST): 211 fold | Kd ([6]; MST): 0.00428 ± 0.00059 µM
SMILES: CCS(=O)(=O)Cc1cnc(Oc2c(F)cc(F)cc2OCCCCOc2ccc(/C=C/c3cc(OC)cc(OC)c3)cc2)c(-c2cc(C)c3c(=O)[nH]ccn23)c1 [BST-4]
